The results in this text go back to patent US20240122909A1, “TREATMENTS OF HEREDITARY ANGIOEDEMA” (KALVISTA PHARMACEUTICALS LIMITED, priority 2021, published 2024).

Data set [1] is described as follows: Phase 1 single ascending dose study, plasma pharmacokinetics. Format: in vivo, human. To be noted: oral capsule 5 mg to 600 mg, fasted healthy males. The procedure:
(§1) This study was a randomized, double-blind, placebo-controlled single ascending dose (SAD) and crossover studies for food effect and capsule/tablet formulations.
Samples for pharmacokinetic (PK) and PD assessment were taken at repeated intervals over 48 hours.
Plasma samples used for PK assessment were analysed using a validated liquid chromatography tandem mass spectrometry (LC MS/MS) method.

The next data set relates to HK. The experiment in a line: Phase 1 study, ex vivo DXS-stimulated cleavage of HK (Wes capillary immunoassay). Format: in vivo, human. The note with it: 600 mg capsules, up to 12 hrs post-dose. The procedure: DXS-stimulated cleavage of HK, in undiluted plasma was quantified by capillary-based immunoassay on the Wes System (ProteinSimple) using monoclonal anti-HK antibody and chemiluminescence-based detection. Plasma kallikrein mediated HK cleavage in undiluted citrated human plasma was induced by contact system activation with DXS (6.25 μg/ml) at 4° C. in selected samples from the SAD phase.

A further data set has as its system plasma prekallikrein. The experiment in a line: Phase 1 study, ex vivo DXS-stimulated cleavage of plasma prekallikrein (Wes). Format: in vivo, human. The note with it: 600 mg capsules, up to 12 hrs post-dose. The text has this: (§2) DXS-stimulated cleavage of plasma prekallikrein and Factor XII (FXII) were quantified by capillary-based immunoassay on the Wes System (ProteinSimple) analogously.

The subject of another data set is Factor XII (FXII). Description: Phase 1 study, ex vivo DXS-stimulated cleavage of Factor XII (Wes). Format: in vivo, human. The note with it: 600 mg capsules, up to 12 hrs post-dose.
Description: as §2

Data set [2] is described as follows: Phase 1 single ascending dose study, safety and tolerability. Format: in vivo, human. To be noted: phase I trial, healthy males.
Description: as §1

The target of a further data set is PKa (Homo sapiens, UniProt P03952). The experiment in a line: Protection of HK from PKa-mediated cleavage in DXS-stimulated HAE and control plasma. It is filed as biochemical. To be noted: HAE and healthy control plasma stimulated with dextran sulfate, WES. As for the experimental part: High molecular weight kininogen (HK) cleavage in undiluted citrated human plasma was induced by contact system activation with dextran sulfate (DXS, Sigma #31395-10G; 6.25 μg/ml) on wet ice. […] HAE plasma was obtained from HAE subjects (n=6) and C1-inhibitor deficiency was confirmed by western blotting. Protection of HK from PKa mediated cleavage in DXS-stimulated whole undiluted plasma was then determined by two methods; traditional western blotting and a semi-automated capillary-based immunoassay.
Western blotting: SDS-PAGE gel electrophoresis was done using 7.5% Criterion TGX Precast gels (Bio-rad). Transfer was made onto Immobilon-FL PVDF membrane. Image analysis was performed using the LICOR imaging system. Mouse monoclonal anti-human HK antibody (MAB15692, R&D systems) was used for traditional immunoblotting.
Capillary-Based Immunoassay on the WES System (ProteinSimple):
Preparation of samples: Combine one part 5× fluorescent master mix with four parts of the 1:200 plasma sample. Vortex to mix. Heat the samples+fluorescent master mix and the biotinylated ladder at 95° C. for 5 minutes, vortex, and load onto the WES plate. […] The peak area is defined as the area calculated for the spectral peak profile for HK. To measure the plasma kallikrein inhibition by the compound, the percent full-length HK detected was calculated.

The nature of data set [3]: Phase 2 study, safety (drug-related TEAEs). Format: in vivo, human. The text has this:
Safety Variables: • AEs, including serious adverse events (SAEs). • Laboratory test results (clinical chemistry, hematology, coagulation, and urinalysis). • Vital signs (SBP, DBP, PR, RR, body temperature). • Physical examination findings. • ECG results. • Pregnancy test (female subjects of child-bearing potential).
AEs were coded using the Medical Dictionary for Regulatory Activities (MedDRA) dictionary (v21.0 or higher) and classified by preferred term and system organ class (SOC). Listings of treatment-emergent adverse events (TEAEs), serious TEAEs, and TEAEs causing premature discontinuation will be provided by sequence group, and further classified by TEAE severity and relationship to study drug.

The nature of data set [4]: Phase 1 multiple dose study, safety, tolerability and ECG. Format: in vivo, human. To be noted: total 1800 mg, healthy adults. The procedure: This was a phase 1, double-blind, placebo-controlled, multiple-dose, multiple-cohort study to evaluate safety and tolerability of the compound as well as of the ECG effects of the compound formulated as 100 mg Film Coated Tablets in healthy adult male and female subjects.
Four (4) cohorts were evaluated. Cohorts 1, 2 and 3 included 8 subjects each. Cohort 4 included 18 subjects. Every attempt was made to include an equal number of male and female subjects in each cohort.
During the study, oral doses of 600 mg of the compound as Film Coated Tablets (six 100 mg tablets) or 6 matching placebo tablets were administered once every 8 hours (Cohort 1) every 4 hours (Cohort 2), or every 2 hours (Cohort 3 and 4) to healthy adult male and female subjects up to a total dose of 1800 mg. In Cohorts 1, 2 and 3, 6 subjects received the compound as 100 mg Film Coated Tablets and 2 subjects received the placebo for a total of 8 subjects per cohort. In Cohort 4, 12 subjects received the compound as 100 mg Film Coated Tablets and 6 subjects received the placebo for a total of 18 subjects.
A Holter monitor was attached to each subject in order to continuously record ECGs. The monitor was attached 1 hour before the first dose and remained attached until after the final blood sample collection. The electrodes for the Holter monitor were checked by a member of the clinic staff at appropriate intervals to ensure they were attached.

The next data set has as its target plasma kallikrein (Homo sapiens, UniProt P03952). Description: Phase 1 study, ex vivo PKa catalytic activity in DXS-stimulated undiluted plasma. Set-up: samples from a Phase 1 Single Ascending Dose Study in healthy adult males; from tissue; host or cells: undiluted plasma of healthy adult male volunteers after oral dosing. The note with it: 600 mg tablet. The procedure:
PD measurements were determined in dextran sulfate (DXS) stimulated undiluted plasma using a fluorogenic enzyme assay and capillary based HK cleavage immunoassay.
The time until appearance of detectable amidolytic enzyme activity in DXS-stimulated plasma (lag time) was calculated from the catalytic activity assay. The detection sensitivity of the rate of catalytic activity in plasma based on using a Spark (Tecan) fluorimeter is a fluorescence increase to reach 1ΔF unit/sec.

[5] abbreviates: 3 x 600 mg every 8, 4 or 2 hours.

Sequence of plasma kallikrein (P03952 391-638 limits assumed): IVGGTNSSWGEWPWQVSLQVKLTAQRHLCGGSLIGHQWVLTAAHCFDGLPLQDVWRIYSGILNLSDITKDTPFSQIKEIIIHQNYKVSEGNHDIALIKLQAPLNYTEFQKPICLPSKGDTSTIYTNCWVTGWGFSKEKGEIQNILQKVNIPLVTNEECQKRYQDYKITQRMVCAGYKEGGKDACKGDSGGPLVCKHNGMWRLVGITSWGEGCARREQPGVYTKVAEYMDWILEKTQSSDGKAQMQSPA
Sequence of plasma kallikrein (P03952 20-390 partner limits assumed): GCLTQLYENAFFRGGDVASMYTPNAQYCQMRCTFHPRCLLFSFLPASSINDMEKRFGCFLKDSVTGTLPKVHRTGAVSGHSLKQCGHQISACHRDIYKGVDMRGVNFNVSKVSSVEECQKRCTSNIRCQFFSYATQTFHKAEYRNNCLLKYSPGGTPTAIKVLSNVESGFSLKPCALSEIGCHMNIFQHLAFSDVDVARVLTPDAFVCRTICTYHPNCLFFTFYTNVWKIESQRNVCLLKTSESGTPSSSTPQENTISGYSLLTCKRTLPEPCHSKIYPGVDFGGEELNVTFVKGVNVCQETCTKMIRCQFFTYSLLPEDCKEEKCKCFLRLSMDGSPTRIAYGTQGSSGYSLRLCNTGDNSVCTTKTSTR
Sequence of PKa (P03952 391-638 limits assumed): as the sequence (P03952 391-638 limits assumed) above
Sequence of PKa (P03952 20-390 partner limits assumed): as the sequence (P03952 20-390 partner limits assumed) above

`COCc1nn(Cc2ccc(Cn3ccccc3=O)cc2)cc1C(=O)NCc1nccc(OC)c1F` [compound of Formula A, N-[(3-fluoro-4-methoxypyridin-2-yl)methyl]-3-(methoxymethyl)-1-({4-[(2-oxopyridin-1-yl)methyl]phenyl}methyl)pyrazole-4-carboxamide]: the plasma exposure entry in [1] was “rapid and dose-dependent plasma exposure”. In addition, the “effect on HK cleavage” value in the data set with HK is given as “reduces HK cleavage”. Besides, the “effect on PPK cleavage” value in the data set with plasma prekallikrein is recorded as “reduces PPK cleavage”. The “effect on generation of FXIIa” value in the data set on Factor XII (FXII) is recorded as “reduces the generation of FXIIa”. Further, the tolerability result in data set [2] was “no tolerability signals”. For the same molecule, the “protection against HK cleavage” value on PKa was “dose dependent protection against HK cleavage”. In data set [3] (Part 1, open-label phase), the “on-treatment drug-related TEAE, number of events” value came out at 8 and the “patients with on-treatment drug-related TEAE” value is reported as 5 patients. In addition, in data set [3] (Part 2, crossover phase), the “on-treatment drug-related TEAE, number of events” value came out at 3 and the “patients with on-treatment drug-related TEAE” value was 5.2%. Besides, in data set [4] (setting [5]), the serious adverse events entry was “No serious adverse events” and the “severity of reported adverse events” value is given as “mild”. Moreover, the “effects on ECG parameters” value in data set [4] (3 x 600 mg) is listed as “No clinically relevant effects on the studied ECG parameters”. Besides, at plasma kallikrein, the “lag time until appearance of catalytic activity during contact system activation” value was “increases the time until appearance of catalytic activity”. Moreover, the “food effect on pharmacodynamic profile” value at plasma kallikrein (fed vs fasted) is on record as “no significant food-effect”.
